From ChEMBL document CHEMBL1201862, “PubChem BioAssay data set” (2004)
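Step 1: Grow cells in 96-well plates. Step 2: Expose to compound for 48 hours at 5 concentrations. Step 3: Interpolate endpoints linearly; if unreached, use highest concentration. The concentration for 50% growth inhibition is given as GI50.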 Calls of active or inactive are those of the source. No stated cut-off is given here; in the data, active = GI50 up to about 1.1 µM and inactive = higher.

Assays:
Assay in all cases: inhibition of tumour cell growth, NCI panel, 48 h
[1] = tested on: SF-539
[2] = tested on: UACC-257
[3] = tested on: HOP-62
[4] = tested on: MOLT-4
[5] = tested on: NCI-H23
[6] = tested on: K562
[7] = tested on: MDA-MB-231
[8] = tested on: IGROV-1
[9] = tested on: TK-10
[10] = tested on: NCI/ADR-RES
[11] = tested on: MCF7
[12] = tested on: CCRF-CEM
[13] = tested on: SNB-19
[14] = tested on: Hs-578T
[15] = tested on: PC-3
[16] = tested on: KM12
[17] = tested on: OVCAR-5
[18] = tested on: LOX IMVI
[19] = tested on: SW-620
[20] = tested on: SN12C
[21] = tested on: BT-549
[22] = tested on: 786-0
[23] = tested on: RPMI-8226
[24] = tested on: A498
[25] = tested on: M14
[26] = tested on: U-251
[27] = tested on: NCI-H522
[28] = tested on: MDA-N
[29] = tested on: NCI-H226
[30] = tested on: ACHN
[31] = tested on: HT-29
[32] = tested on: MDA-MB-435
[33] = tested on: CAKI-1
[34] = tested on: OVCAR-4
[35] = tested on: OVCAR-8
[36] = tested on: SK-OV-3
[37] = tested on: HL-60
[38] = tested on: COLO 205
[39] = tested on: EKVX
[40] = tested on: SF-295
[41] = tested on: DU-145
[42] = tested on: T47D
[43] = tested on: OVCAR-3
[44] = tested on: HCC 2998
[45] = tested on: SNB-75
[46] = tested on: SF-268
[47] = tested on: Malme-3M
[48] = tested on: SK-MEL-5
[49] = tested on: A549
[50] = tested on: SK-MEL-2
[51] = tested on: SR
[52] = tested on: HCT-15
[53] = tested on: RXF 393
[54] = tested on: UACC-62
[55] = tested on: HCT-116
[56] = tested on: UO-31

SMILES: N#Cc1c(C#N)c(-c2ccccc2)n(Cc2ccccc2)c1N
- GI50 [1]: 26 µM (inactive)
- GI50 [2]: > 100 µM (inactive)
- GI50 [3]: 51.1 µM (inactive)
- GI50 [4]: > 100 µM (inactive)
- GI50 [5]: > 100 µM (inactive)
- GI50 [6]: > 100 µM (inactive)
- GI50 [7]: 26.9 µM (inactive)
- GI50 [8]: > 100 µM (inactive)
- GI50 [9]: > 100 µM (inactive)
- GI50 [10]: > 100 µM (inactive)
- GI50 [11]: > 100 µM (inactive)
- GI50 [12]: > 100 µM (inactive)
- GI50 [13]: 29.6 µM (inactive)
- GI50 [14]: 25.6 µM (inactive)
- GI50 [15]: > 100 µM (inactive)
- GI50 [16]: > 100 µM (inactive)
- GI50 [17]: > 100 µM (inactive)
- GI50 [18]: > 100 µM (inactive)
- GI50 [19]: > 100 µM (inactive)
- GI50 [20]: > 100 µM (inactive)
- GI50 [21]: > 100 µM (inactive)
- GI50 [22]: 35 µM (inactive)
- GI50 [23]: > 100 µM (inactive)
- GI50 [24]: > 100 µM (inactive)
- GI50 [25]: > 100 µM (inactive)
- GI50 [26]: 80.5 µM (inactive)
- GI50 [27]: > 100 µM (inactive)
- GI50 [28]: > 100 µM (inactive)
- GI50 [29]: > 100 µM (inactive)
- GI50 [30]: > 100 µM (inactive)
- GI50 [31]: > 100 µM (inactive)
- GI50 [32]: > 100 µM (inactive)
- GI50 [33]: > 100 µM (inactive)
- GI50 [34]: > 100 µM (inactive)
- GI50 [35]: 28.4 µM (inactive)
- GI50 [36]: > 100 µM (inactive)
- GI50 [37]: > 100 µM (inactive)
- GI50 [38]: > 100 µM (inactive)
- GI50 [39]: > 100 µM (inactive)
- GI50 [40]: > 100 µM (inactive)
- GI50 [41]: > 100 µM (inactive)
- GI50 [42]: > 100 µM (inactive)
- GI50 [43]: > 100 µM (inactive)
- GI50 [44]: > 100 µM (inactive)
- GI50 [45]: 14.4 µM (inactive)
- GI50 [46]: 47.2 µM (inactive)
- GI50 [47]: > 100 µM (inactive)
- GI50 [48]: > 100 µM (inactive)
- GI50 [49]: > 100 µM (inactive)
- GI50 [50]: > 100 µM (inactive)
- GI50 [51]: > 100 µM (inactive)
- GI50 [52]: > 100 µM
- GI50 [53]: 48.6 µM (inactive)
- GI50 [54]: > 100 µM (inactive)
- GI50 [55]: > 100 µM (inactive)
- GI50 [56]: > 100 µM (inactive)
